In patent USRE49022E1, “Insecticidal compounds” (SYNGENTA PARTICIPATIONS AG, priority 2013, dated 2022):

How the values were obtained:
Type in all cases: in vivo
[1] = test system: Thrips tabaci (Onion Thrips); assay: Thrips tabaci, sunflower leaf disc spray test; conditions: foliar, 168 h, sprayed sunflower leaf discs, mortality after 7 days
[2] = test system: Tetranychus urticae (Two-Spotted Spider Mite); assay: Tetranychus urticae, bean leaf disc spray test; conditions: foliar, 192 h, sprayed bean leaf discs, mite populations of mixed ages, 8 days
From the text: Bean leaf discs on agar in 24-well microtiter plates were sprayed with test solutions at an application rate of 200 ppm. After drying, the leaf discs are infested with mite populations of mixed ages. 8 days later, discs were checked for mortality.

[3] = test system: Plutella xylostella (Diamond Back Moth); assay: Plutella xylostella, artificial diet MTP test; conditions: 144 h, 200 ppm (concentration in well 18 ppm), L2 larvae, 6 days
In short: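 Artificial diet treated at 200 ppm application rate (18 ppm in well), dried, then infested with 7–12 L2 larvae per well. Larval mortality and growth regulation assessed after 6 days.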

[4] = test system: Myzus persicae (Green Peach Aphid); assay: Myzus persicae, sucrose solution / Parafilm test; conditions: 120 h, mixed with sucrose solution under Parafilm, mortality 5 days after infestation
In short: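 Compounds mixed into sucrose solution at 12.5 ppm, sealed under stretched Parafilm, with aphid-infested pea seedlings placed on the Parafilm and the plate inverted so aphids feed through the membrane. Mortality assessed 5 days after infestation.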

[5] = test system: Myzus persicae (Green Peach Aphid); assay: Myzus persicae, sunflower leaf disc spray test; conditions: foliar, 144 h, sprayed sunflower leaf discs, aphid population of mixed ages, mortality after 6 DAT
Method: Sunflower leaf discs were placed on agar in a 24-well microtiter plate and sprayed with test solutions at an application rate of 200 ppm. After drying, the leaf discs were infested with an aphid population of mixed ages. After an incubation period of 6 DAT, samples were checked for mortality.

[6] = test system: Diabrotica balteata (Corn Root Worm); assay: Diabrotica balteata, artificial diet MTP test; conditions: 120 h, 200 ppm (concentration in well 18 ppm), L2 larvae, larval mortality after 5 days
In short: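 Artificial diet treated with test solution at 200 ppm application rate (18 ppm in well), dried, then infested with L2 larvae (6-10 per well). Larval mortality checked after 5 days of incubation.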

[7] = test system: Spodoptera littoralis (Egyptian Cotton Leaf Worm); assay: Spodoptera littoralis, agar / lettuce root uptake test; conditions: 144 h, mixed with agar, uptake by lettuce roots, mortality 6 days after infestation
[8] = test system: Spodoptera littoralis (Egyptian Cotton Leafworm); assay: Spodoptera littoralis, cotton leaf disc spray test; conditions: foliar, 72 h, sprayed cotton leaf discs, L1 larvae, 3 days after treatment
From the text: Cotton leaf discs were placed on agar in a 24-well microtiter plate and sprayed with test solutions at an application rate of 200 ppm. After drying, the leaf discs were infested with 5 L1 larvae. The samples were checked for mortality 3 days after treatment (DAT).

CCN(C(=O)c1cccnc1)c1cccc(C(=O)Nc2c(Br)cc(C(F)(C(F)(F)F)C(F)(F)Cl)cc2OC(F)F)c1OC (stereo not drawn) [Compound 40]
≥ 80%: pest or weed control at 200 ppm [1] | mortality at 200 ppm [2] | mortality at 200 ppm [3] | pest or weed control at 12.5 ppm [4] | pest or weed control at 200 ppm [5] | pest or weed control at 200 ppm [6] | pest or weed control at 12.5 ppm [7] | mortality at 200 ppm [8]

CCN(C(=O)c1ccc[n+]([O-])c1)c1cccc(C(=O)Nc2c(Br)cc(C(F)(C(F)(F)F)C(F)(F)Cl)cc2OC(F)F)c1OC (stereo not drawn) [Compound 48]
≥ 80%: pest or weed control at 200 ppm [1] | mortality at 200 ppm [2] | mortality at 200 ppm [3] | pest or weed control at 12.5 ppm [4] | pest or weed control at 200 ppm [5] | pest or weed control at 200 ppm [6] | pest or weed control at 12.5 ppm [7] | mortality at 200 ppm [8]

COc1c(NC(=O)c2ccncc2)cccc1C(=O)Nc1c(Br)cc(C(F)(C(F)(F)F)C(F)(F)Cl)cc1OC(F)F (stereo not drawn) [Compound 14]
≥ 80%: pest or weed control at 200 ppm [1] | mortality at 200 ppm [2] | mortality at 200 ppm [3] | pest or weed control at 12.5 ppm [4] | pest or weed control at 200 ppm [5] | pest or weed control at 200 ppm [6] | pest or weed control at 12.5 ppm [7] | mortality at 200 ppm [8]

COc1c(NC(=O)c2ccc(C#N)cc2)cccc1C(=O)Nc1c(Br)cc(C(F)(C(F)(F)F)C(F)(F)Cl)cc1OC(F)F (stereo not drawn) [Compound 16]
≥ 80%: pest or weed control at 200 ppm [1] | mortality at 200 ppm [2] | mortality at 200 ppm [3] | pest or weed control at 12.5 ppm [4] | pest or weed control at 200 ppm [5] | pest or weed control at 200 ppm [6] | pest or weed control at 12.5 ppm [7] | mortality at 200 ppm [8]

O=C(Nc1cccc(C(=O)Nc2c(Br)cc(C(F)(C(F)(F)F)C(F)(F)Br)cc2OC(F)F)c1F)c1cc[n+]([O-])cc1 (stereo not drawn) [Compound 6]
≥ 80%: pest or weed control at 200 ppm [1] | mortality at 200 ppm [2] | mortality at 200 ppm [3] | pest or weed control at 12.5 ppm [4] | pest or weed control at 200 ppm [5] | pest or weed control at 200 ppm [6] | pest or weed control at 12.5 ppm [7] | mortality at 200 ppm [8]

CCN(C(=O)c1ccncc1)c1cccc(C(=O)Nc2c(Br)cc(C(F)(C(F)(F)F)C(F)(F)Br)cc2OC(F)F)c1F (stereo not drawn) [Compound 7]
≥ 80%: pest or weed control at 200 ppm [1] | mortality at 200 ppm [2] | mortality at 200 ppm [3] | pest or weed control at 12.5 ppm [4] | pest or weed control at 200 ppm [5] | pest or weed control at 200 ppm [6] | pest or weed control at 12.5 ppm [7] | mortality at 200 ppm [8]

CCc1cc(C(F)(C(F)(F)F)C(F)(F)Cl)cc(Br)c1NC(=O)c1cccc(N(CC)C(=O)c2cccnc2)c1F (stereo not drawn) [Compound 41]
≥ 80%: pest or weed control at 200 ppm [1] | mortality at 200 ppm [2] | mortality at 200 ppm [3] | pest or weed control at 12.5 ppm [4] | pest or weed control at 200 ppm [5] | pest or weed control at 200 ppm [6] | pest or weed control at 12.5 ppm [7] | mortality at 200 ppm [8]

O=C(Nc1cccc(C(=O)Nc2c(Br)cc(C(F)(C(F)(F)F)C(F)(F)Cl)cc2OC(F)F)c1F)c1ccc[n+]([O-])c1 (stereo not drawn) [Compound 24]
≥ 80%: pest or weed control at 200 ppm [1] | mortality at 200 ppm [2] | mortality at 200 ppm [3] | pest or weed control at 12.5 ppm [4] | pest or weed control at 200 ppm [5] | pest or weed control at 200 ppm [6] | pest or weed control at 12.5 ppm [7] | mortality at 200 ppm [8]

O=C(Nc1cccc(C(=O)Nc2c(Br)cc(C(F)(C(F)(F)F)C(F)(F)Cl)cc2OC(F)F)c1F)c1cc[n+]([O-])cc1 (stereo not drawn) [Compound 23]
≥ 80%: pest or weed control at 200 ppm [1] | mortality at 200 ppm [2] | mortality at 200 ppm [3] | pest or weed control at 12.5 ppm [4] | pest or weed control at 200 ppm [5] | pest or weed control at 200 ppm [6] | pest or weed control at 12.5 ppm [7] | mortality at 200 ppm [8]
